# Source: ChEMBL document CHEMBL1149970, “Novel dithiocarbamate carbapenems1 with anti-MRSA activity” (Bioorg Med Chem Lett, 1997)
# Assays:
# Assay type in all cases: functional
# [1] = biological target: T1, Dipeptidase 1 (Sus scrofa) (UniProt P22412); experiment: Relative rate of hydrolysis of porcine renal dehydropeptidase-I (DHP-I) to imipenem
# T1 sequence (whole entry): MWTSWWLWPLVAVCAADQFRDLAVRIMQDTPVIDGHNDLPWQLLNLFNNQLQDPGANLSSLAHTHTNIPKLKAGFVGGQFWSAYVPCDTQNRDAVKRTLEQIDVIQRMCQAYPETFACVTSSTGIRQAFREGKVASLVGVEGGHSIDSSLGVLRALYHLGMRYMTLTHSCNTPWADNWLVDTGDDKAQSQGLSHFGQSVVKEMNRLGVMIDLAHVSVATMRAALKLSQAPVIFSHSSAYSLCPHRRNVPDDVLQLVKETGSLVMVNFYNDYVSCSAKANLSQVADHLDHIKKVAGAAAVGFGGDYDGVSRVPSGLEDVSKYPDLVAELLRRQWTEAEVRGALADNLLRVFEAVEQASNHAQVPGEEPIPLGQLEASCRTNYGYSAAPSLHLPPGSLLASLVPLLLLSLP
# Enterococcus faecalis = experiment: In vitro antibacterial activity against Enterococcus faecalis MB4996 organism
# Escherichia coli = experiment: In vitro antibacterial activity against Escherichia coli NIHJ JC2 organism
# Pseudomonas aeruginosa = experiment: In vitro antibacterial activity against Pseudomonas aeruginosa MB5002 organism
# [2] = system: Staphylococcus epidermidis; experiment: In vitro antibacterial activity against Staphylococcus epidermidis MB5181a organism
# Staphylococcus aureus [3] = experiment: In vitro antibacterial activity against staphylococcus aureus 209P NIHJ JC1 organism
# Staphylococcus aureus [4] = experiment: In vitro antibacterial activity against staphylococcus aureus BB6294 organism (Methicillin-resistant strain)
# Staphylococcus aureus [5] = experiment: In vitro antibacterial activity against staphylococcus aureus CSa1009 (Methicillin-resistant strain and b beta-Lactamase producing strain)
# Staphylococcus aureus [6] = experiment: Compound was tested in vivo for its anti-methicillin-resistant staphylococcus aureus(MRSA); conditions: Staphylococcus aureus
# [7] = Staphylococcus epidermidis, read-out: MIC
SMILES,DHP-I susceptibility [1],MIC (Enterococcus faecalis),MIC (Escherichia coli),MIC (Pseudomonas aeruginosa),"MIC [2, 7]",MIC (Staphylococcus aureus [3]),MIC (Staphylococcus aureus [4]),MIC (Staphylococcus aureus [5]),ED50 (Staphylococcus aureus [6]),MIC [2]
C[C@@H](O)[C@H]1C(=O)N2C(C(=O)O)=C(SC(=S)N3CCC(O)CC3)[C@H](C)[C@H]12,2.23,6.25 µg/mL,3.13 µg/mL,> 25 µg/mL,6.25 µg/mL,0.025 µg/mL,6.25 µg/mL,6.25 µg/mL,,
C[C@@H](O)[C@H]1C(=O)N2C(C(=O)O)=C(SC(=S)N(C)Cc3ccccc3)[C@H](C)[C@H]12,1.94,1.56 µg/mL,12.5 µg/mL,> 25 µg/mL,3.13 µg/mL,0.012 µg/mL,1.56 µg/mL,1.56 µg/mL,,
C[C@@H](O)[C@H]1C(=O)N2C(C(=O)O)=C(SC(=S)N3CCC3)[C@H](C)[C@H]12,3.03,6.25 µg/mL,3.13 µg/mL,> 25 µg/mL,6.25 µg/mL,0.025 µg/mL,3.13 µg/mL,6.25 µg/mL,,
C[C@@H](O)[C@H]1C(=O)N2C(C(=O)O)=C(SC(=S)N(C)c3cccs3)[C@H](C)[C@H]12,2.05,3.13 µg/mL,12.5 µg/mL,> 25 µg/mL,0.78 µg/mL,< 0.006 µg/mL,1.56 µg/mL,3.13 µg/mL,,
CN[C@H](CC(C)C)C(=O)N[C@H]1C(=O)N[C@@H](CC(N)=O)C(=O)N[C@H]2C(=O)N[C@H]3C(=O)N[C@H](C(=O)N[C@H](C(=O)O)c4cc(O)cc(O)c4-c4cc3ccc4O)[C@H](O)c3ccc(c(Cl)c3)Oc3cc2cc(c3O[C@@H]2O[C@H](CO)[C@@H](O)[C@H](O)[C@H]2O[C@H]2C[C@](C)(N)[C@H](O)[C@H](C)O2)Oc2ccc(cc2Cl)[C@H]1O [VANCOMYCIN],,,> 25 µg/mL,> 25 µg/mL,,0.39 µg/mL,,,5.56 mg/kg,
CCN(CCO)C(=S)SC1=C(C(=O)O)N2C(=O)[C@H]([C@@H](C)O)[C@H]2[C@H]1C,2.38,6.25 µg/mL,6.25 µg/mL,> 25 µg/mL,3.13 µg/mL,0.025 µg/mL,6.25 µg/mL,6.25 µg/mL,,
C=CCN(CCCO)C(=S)SC1=C(C(=O)O)N2C(=O)[C@H]([C@@H](C)O)[C@H]2[C@H]1C,1.39,6.25 µg/mL,12.5 µg/mL,> 25 µg/mL,,0.025 µg/mL,3.13 µg/mL,3.13 µg/mL,,3.13 pug ml-1
C[C@@H](O)[C@H]1C(=O)N2C(C(=O)O)=C(SC(=S)N3CCCCCC3)[C@H](C)[C@H]12,3.09,6.25 µg/mL,> 25 µg/mL,> 25 µg/mL,1.56 µg/mL,0.012 µg/mL,1.56 µg/mL,1.56 µg/mL,,
C[C@@H](O)[C@H]1C(=O)N2C(C(=O)O)=C(SC(=S)N3CC(O)C3)[C@H](C)[C@H]12,2.32,12.5 µg/mL,0.78 µg/mL,> 25 µg/mL,3.13 µg/mL,0.025 µg/mL,6.25 µg/mL,6.25 µg/mL,,
CCCN(C)C(=S)SC1=C(C(=O)O)N2C(=O)[C@H]([C@@H](C)O)[C@H]2[C@H]1C,2.71,6.25 µg/mL,25 µg/mL,25 µg/mL,3.13 µg/mL,0.025 µg/mL,3.13 µg/mL,3.13 µg/mL,,
